# ChEMBL document CHEMBL1201862, “PubChem BioAssay data set” (2004)
#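 Results reflect a 48-hour exposure of cells in 96-well plates to compound at five concentrations. GI50: concentration for 50% inhibition of growth.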 The source made the active and inactive calls. Cut-off read from the data, not from the text of the source: active = GI50 up to about 1.1 µM and inactive = higher.
# Columns and labels:
# Assay in all cases: DTP human tumour cell line panel, 48 h
# [1] = system: 786-0
# [2] = system: HL-60
# [3] = system: A549
# [4] = system: U-251
# [5] = system: A498
# [6] = system: SK-MEL-2
# [7] = system: HCT-15
# [8] = system: EKVX
# [9] = system: SK-OV-3
# [10] = system: OVCAR-5
# [11] = system: SNB-75
# [12] = system: UACC-257
# [13] = system: OVCAR-4
# [14] = system: HCC 2998
# [15] = system: M14
# [16] = system: CAKI-1
SMILES,GI50 [1],GI50 [2],GI50 [3],GI50 [4],GI50 [5],GI50 [6],GI50 [7],GI50 [8],GI50 [9],GI50 [10],GI50 [11],GI50 [12],GI50 [13],GI50 [14],GI50 [15],GI50 [16]
Cc1nc2nn(C)cc2c(=O)n1/N=C/c1ccccc1,> 100 µM (inactive),> 100 µM (inactive),> 100 µM (inactive),> 100 µM (inactive),> 100 µM (inactive),> 100 µM (inactive),> 100 µM,> 100 µM (inactive),> 100 µM (inactive),> 100 µM (inactive),> 100 µM (inactive),> 100 µM (inactive),> 100 µM (inactive),> 100 µM (inactive),,
CC1=C(c2ccccc2)C(c2ccccc2)=C(c2ccccc2)C2(c3ccccc3)C(=O)C(C)CN12 (stereo unspecified),30.6 µM (inactive),,57.1 µM (inactive),30.3 µM (inactive),> 100 µM (inactive),95.7 µM (inactive),61.2 µM,41.4 µM (inactive),> 100 µM (inactive),49.9 µM (inactive),19.4 µM (inactive),30.5 µM (inactive),20.8 µM (inactive),> 100 µM (inactive),51.6 µM (inactive),57.3 µM (inactive)
C[C@]12CCC3[C@@H](CC[C@@H]4c5nonc5CC[C@]34C)C1C/C(=N/O)C2=O (stereo partly specified),> 100 µM (inactive),2.12 µM (inactive),> 100 µM (inactive),> 100 µM (inactive),> 100 µM (inactive),1.53 µM (inactive),> 100 µM,52.5 µM (inactive),38.8 µM (inactive),> 100 µM (inactive),0.0885 µM (active),> 100 µM (inactive),76 µM (inactive),,63.5 µM (inactive),4.34 µM (inactive)
O=C1C=CC(=O)c2c1ccc1c3ccccc3n(-c3ccccn3)c21,15.2 µM (inactive),3.5 µM (inactive),> 100 µM (inactive),> 100 µM (inactive),,45.4 µM (inactive),19.1 µM,13.8 µM (inactive),> 100 µM (inactive),> 100 µM (inactive),> 100 µM (inactive),18.5 µM (inactive),15.5 µM (inactive),> 100 µM (inactive),27.5 µM (inactive),
CN(C)c1ccc(/C=N\N2C(=O)c3ccccc3C2=O)cc1,> 100 µM (inactive),> 100 µM (inactive),> 100 µM (inactive),,> 100 µM (inactive),> 100 µM (inactive),> 100 µM,> 100 µM (inactive),,> 100 µM (inactive),40.9 µM (inactive),> 100 µM (inactive),> 100 µM (inactive),> 100 µM (inactive),> 100 µM (inactive),> 100 µM (inactive)
N#C/C(=C/c1ccsc1)C(=O)c1ccccc1,> 100 µM (inactive),> 100 µM (inactive),> 100 µM (inactive),> 100 µM (inactive),,> 100 µM (inactive),> 100 µM,> 100 µM (inactive),> 100 µM (inactive),> 100 µM (inactive),> 100 µM (inactive),> 100 µM (inactive),> 100 µM (inactive),> 100 µM (inactive),> 100 µM (inactive),> 100 µM (inactive)
C[C@]12Cc3conc3C(O)=C1CC[C@@H]1C2CC[C@@]2(C)C1CC[C@]2(C)O (stereo partly specified),22.7 µM (inactive),2.09 µM (inactive),28.1 µM (inactive),19.7 µM (inactive),16.1 µM (inactive),14.3 µM (inactive),10.7 µM,21.5 µM (inactive),24.3 µM (inactive),29.2 µM (inactive),10.2 µM (inactive),22.4 µM (inactive),17.2 µM (inactive),21.1 µM (inactive),16 µM (inactive),
COC(=O)CCC(=O)CC(=O)C(=O)Nc1ccc(F)cc1,> 100 µM (inactive),,> 100 µM (inactive),> 100 µM (inactive),> 100 µM (inactive),> 100 µM (inactive),> 100 µM,> 100 µM (inactive),> 100 µM (inactive),> 100 µM (inactive),> 100 µM (inactive),> 100 µM (inactive),> 100 µM (inactive),> 100 µM (inactive),> 100 µM (inactive),> 100 µM (inactive)
COc1ccc2c(CCNC(=O)/C=C/c3ccccc3)c(C(C)=O)[nH]c2c1[N+](=O)[O-],20.3 µM (inactive),4.31 µM (inactive),8.05 µM (inactive),34.2 µM (inactive),17.3 µM (inactive),17.4 µM (inactive),6.89 µM,,,> 10 µM (inactive),,8.95 µM (inactive),21.8 µM (inactive),20 µM (inactive),7.33 µM (inactive),5.28 µM (inactive)
C[C@]12CCC3[C@@H](CC[C@@H]4c5nonc5CC[C@]34C)C1CCC2=O (stereo partly specified),23.8 µM (inactive),15.7 µM (inactive),27.8 µM (inactive),16 µM (inactive),21.4 µM (inactive),20.3 µM (inactive),29.8 µM,19.9 µM (inactive),36.7 µM (inactive),29.3 µM (inactive),35.4 µM (inactive),18 µM (inactive),23.8 µM (inactive),,18.3 µM (inactive),22.9 µM (inactive)
COC(=O)C1=C(C(=O)OC)C2(C(=O)OC)OC1(OC)C(C1(C(=O)OC)C(C(=O)OC)=C1C(=O)OC)=C2C(=O)OC (stereo unspecified),> 100 µM (inactive),> 100 µM (inactive),> 100 µM (inactive),> 100 µM (inactive),,> 100 µM (inactive),> 100 µM,> 100 µM (inactive),> 100 µM (inactive),> 100 µM (inactive),> 100 µM (inactive),> 100 µM (inactive),,> 100 µM (inactive),> 100 µM (inactive),
O=S1(=O)NN=C(NCc2ccc(Cl)cc2)c2ccccc21,54.5 µM (inactive),> 100 µM (inactive),> 100 µM (inactive),50.4 µM (inactive),> 100 µM (inactive),> 100 µM (inactive),67 µM,46.9 µM (inactive),,> 100 µM (inactive),,> 100 µM (inactive),> 100 µM (inactive),> 100 µM (inactive),74 µM (inactive),> 100 µM (inactive)
Nc1ccn(CCCC(c2ccccc2)P(=O)(O)O)c(=O)n1 (stereo unspecified),> 100 µM (inactive),> 100 µM (inactive),> 100 µM (inactive),> 100 µM (inactive),> 100 µM (inactive),> 100 µM (inactive),> 100 µM,,> 100 µM (inactive),> 100 µM (inactive),> 100 µM (inactive),> 100 µM (inactive),,> 100 µM (inactive),> 100 µM (inactive),> 100 µM (inactive)
O=C(O)CN(c1ccc(F)cc1)S(=O)(=O)c1ccccc1,> 100 µM (inactive),> 100 µM (inactive),> 100 µM (inactive),> 100 µM (inactive),> 100 µM (inactive),> 100 µM (inactive),> 100 µM,> 100 µM (inactive),> 100 µM (inactive),> 100 µM (inactive),> 100 µM (inactive),> 100 µM (inactive),> 100 µM (inactive),,> 100 µM (inactive),> 100 µM (inactive)
